How the values were obtained:
[1] = Population pharmacokinetics of TSC in plasma (LC-MS/MS, two-compartment model); type: in vivo, human; parameters: V2 / V1: unit not given here
Protocol: Prior to and following study drug administration, PK samples are obtained at the below intervals: • Pre-dose (within 10 minutes prior to injection) • 1 minute post end of injection (+1 minute) • 10 minutes post end of injection (±1 minute) • 30 minutes post end of injection (±1 minute) • 1.5 hours post end of injection (±2 minutes)
Plasma is assayed for TSC using LC-MS/MS using prednisone as an internal standard. Sample pre-treatment involves a protein precipitation extraction procedure. Lower limit of quantitation is 10 ng/ml.
For 19 of the 24 subjects included in the PK analysis, TSC concentration (Cp: Concentration in Plasma.) in the 1-minute sample is smaller (often many-fold) compared to the 10-minute sample, most likely a result of sampling too soon after the dose is administered. As a result, all 1-minute samples are excluded from population PK analysis.
Based on previous analyses and examination of drug concentration profiles, a two-compartment model with no covariates fit the data well. To determine whether the systemic parameters should be scaled for body size, three scaling approaches are evaluated: scaling all parameters by weight, allometric scaling (clearances scaled by weight raised to the 0.75 power; distribution volumes scaled by weight), and scaling all parameters by weight raised to an estimated power. The weight normalized model is preferred statistically (evaluated by the decrease in the objective function [similar to a sum of squares]) and by graphics. […] A model is evaluated in which clearance varied as a linear function of dose: […]

healthy volunteers = experiment: Safety assessment in the tcpO2 study (adverse events, vital signs); type: in vivo, human
Protocol: Vital signs during the treatment and evaluation period are assessed at 10, 30, and 60 minutes post-study drug dosing. Adverse events are assessed throughout.

[2] = Solubility of TSC in water with gamma-cyclodextrin; type: physicochemical
[3] = tested on: healthy volunteers exercising at altitude; experiment: Crossover study in healthy volunteers exercising at simulated altitude of 15,000 feet (arterial blood gas, VO2 max, SpO2, lactate); type: in vivo, human
Excerpt: This is a double-blind, randomized, placebo-controlled crossover study designed to investigate TSC's effects on oxygen enhancement using an experimental model to induce hypoxia in study participants. The primary endpoints measured in this study are maximal oxygen consumption and partial pressure of arterial blood oxygen in normal healthy volunteers subjected to incremental levels of physical exertion while exposed to hypoxic and hypobaric conditions at a simulated altitude of 15,000 feet above sea level. The secondary endpoints are to assess the effect of TSC on SpO2 and lactate.
A total of 30 healthy volunteers are enrolled in the trial with each subject serving as their own control by completing the experiment twice in a random, blinded order in the same day with a 3-hour rest and wash out period between experimental intervals. During one ascent, study subjects receive intravenous (IV) placebo administration and the other ascent the same subject receives a single IV dose of TSC at one of three dose levels (0.5 mg/kg, 1.5 mg/kg, or 2.5 mg/kg).
Primary analyses will be based on sequence matched changes in median PaO2 and median VO2 following a single administration of TSC versus placebo in subjects exposed to simulated altitude and undergoing exercise. This is a crossover design, repeated measures study where each subject will serve as their own control. Each subject will be randomized to a TSC dose and will also be randomized to their altitude exposure sequence on the day of testing.

[4] = population estimate, multiplied by SCALE (WT/75)
[5] = 2.5 mg/kg, end of exercise and 10 minutes post-exercise
[6] = change last exercise to 10-minutes post-exercise, 2.5 mg/kg vs other TSC doses and placebo
[7] = last exercise value minus baseline, 2.5 mg/kg vs other TSC doses and placebo
[8] = last exercise value, 2.5 mg/kg vs other TSC doses and placebo

CC(/C=C/C=C(\C)C(=O)[O-])=C\C=C\C=C(C)\C=C\C=C(/C)C(=O)O.[Na+] [TSC, trans sodium crocetinate]
Clearance as a function of dose ([1]; IV bolus 0.5-2.5 mg/kg): clearance decreases at escalating doses
TSC plasma concentrations as a function of dose ([1]; IV bolus 0.5-2.5 mg/kg, highest at 2.5 mg/kg): increase with escalating dose
clearance ([1]; human, plasma, population estimate, single IV bolus 0.5-2.5 mg/kg, multiplied by SCALE (WT/75) and FCTR 1-0.53677 · (DOSE/1.5)): 137 mL/min
Distribution Clearance [1, 4]: 161.176 · SCALE L/day
V1 [1, 4]: 4.277 · SCALE
V2 [1, 4]: 46.61 · SCALE
Serious adverse events or withdrawals (healthy volunteers; 30 subjects): No subjects experience a serious adverse event
Number of treatment-emergent adverse events determined to be drug-related (healthy volunteers; of nine events, all mild in intensity): five
Subjects with treatment-emergent adverse events (healthy volunteers; seven of the 30 subjects (TSC and placebo cohorts), nine events overall): 23.3%
Safety and tolerability (healthy volunteers; single IV bolus 0.5-2.5 mg/kg): safe and well tolerated
Serious adverse events or dose-limiting toxicities (healthy volunteers; up to and including the 2.5 mg/kg iv dose): no serious adverse events or dose-limiting toxicities
TSC content of aqueous solutions ([2]; TSC and gamma-cyclodextrin): ≤ 44 milligrams of TSC per ml of solution
TSC content of solutions ([2]; formulated with a cyclodextrin and mannitol): over 20 mg TSC/ml of solution
Post-exercise recovery (pH, lactate, SpO2 and other markers) ([3]; 2.5 mg/kg, 10 minutes post-exercise versus last exercise measurements): positive effect on post-exercise recovery
Blood pH following exercise under hypoxic conditions [3, 5]: increase in pH
Lactate following exercise under hypoxic conditions [3, 5]: decrease in lactate
Effects on pH at the end of the exercise period versus baseline, compared to placebo ([3]; 2.5 mg/kg, p<0.1): significantly different
Intra-day maximal oxygen consumption tests ([3]; 0.5, 1.5, 2.5 mg/kg IV): no observed changes
Partial pressure of arterial blood oxygen ([3]; 0.5, 1.5, 2.5 mg/kg IV): no observed changes
pH, least square mean ([3]; 10-minute post-exercise change from baseline (smallest reduction), 2.5 mg/kg vs other TSC doses and placebo, p=0.01 vs placebo): highest least square mean value
HCO3, least square mean ([3]; 10-minute post-exercise change from baseline, 2.5 mg/kg vs other TSC doses and placebo): highest least square mean value
Lactic acid, least square mean ([3]; 10-minute post-exercise change from baseline, 2.5 mg/kg vs other TSC doses and placebo, p<0.05 vs 0.5 mg/kg): lowest least square mean value
Oxygen saturation, least square mean ([3]; 10-minute post-exercise change from baseline, 2.5 mg/kg vs other TSC doses and placebo, p<0.05 vs 0.5 mg/kg, p=0.01 vs placebo): highest least square mean value
PAO2, least square mean ([3]; 10-minute post-exercise change from baseline, 2.5 mg/kg vs other TSC doses and placebo, separates statistically from 0.5 mg/kg): highest least square mean value
pH, change ([3]; change last exercise to 10-minutes post-exercise, 2.5 mg/kg): smallest change
Lactic acid, least square mean ([3]; change last exercise to 10-minutes post-exercise, 2.5 mg/kg and 1.5 mg/kg vs other TSC doses and placebo): lowest least square mean value
HCO3, least square mean [3, 6]: highest least square mean value
Oxygen saturation, least square mean [3, 6]: highest least square mean value
PACO2, least square mean [3, 6]: highest least square mean value
PAO2, least square mean [3, 6]: highest least square mean value
PAO2, least square mean ([3]; last exercise value minus baseline, 0.5 mg/kg TSC dose and placebo vs other TSC doses): lowest least square mean value
HCO3, least square mean [3, 7]: highest least square mean value
Oxygen saturation, least square mean [3, 7]: lowest least square mean value
VO2 maximum, least square mean [3, 7]: lowest least square mean value
pH, least square mean ([3]; last exercise value minus baseline, 2.5 mg/kg vs other TSC doses and placebo, separates statistically from 0.5 mg/kg): highest least square mean value
Lactic acid, least square mean ([3]; last exercise value minus baseline, 2.5 mg/kg vs other TSC doses and placebo, trend lower with dose): lowest least square mean value
PACO2, least square mean [3, 8]: highest least square mean value
pH, least square mean [3, 8]: highest least square mean value
Lactic acid, least square mean ([3]; last exercise value, 2.5 mg/kg vs other TSC doses and placebo, p<0.1 vs 0.5 mg/kg, trend lower with dose): lowest least square mean value
Oxygen saturation, least square mean ([3]; last exercise value, 2.5 mg/kg vs other TSC doses and placebo, p<0.1 vs 1.5 mg/kg): lowest least square mean value
HCO3, least square mean ([3]; last exercise value, 2.5 mg/kg vs other TSC doses and placebo, separates statistically from 0.5 mg/kg): highest least square mean value
PAO2, least square mean ([3]; last exercise value, 2.5 mg/kg vs other TSC doses and placebo, separates statistically from 1.5 mg/kg): lowest least square mean value
Sequence effect in subjects who received TSC in the first ascent of the day ([3]; pH change from baseline, p<0.05 placebo first vs second): carry-over
Oxygen saturation, least square mean ([3]; post-exercise value, 2.5 mg/kg vs other TSC doses and placebo): highest least square mean value
PACO2, least square mean ([3]; post-exercise value, 2.5 mg/kg vs other TSC doses and placebo, p<0.05 vs 0.5 mg/kg): highest least square mean value
Lactic acid, least square mean ([3]; post-exercise value, 2.5 mg/kg vs other TSC doses and placebo, p<0.05 vs 0.5 mg/kg, p=0.01 vs placebo): lowest least square mean value
pH, least square mean ([3]; post-exercise value, 2.5 mg/kg vs other TSC doses and placebo, separates from 0.5 mg/kg, p=0.01 vs placebo): highest least square mean value
HCO3, least square mean ([3]; post-exercise value, 2.5 mg/kg vs other TSC doses and placebo, separates statistically from 0.5 mg/kg): highest least square mean value

— patent US20240316000A1, “METHODS OF TREATMENT” (DIFFUSION PHARMACEUTICALS LLC, priority 2021, published 2024)
